Data reported in patent US20060062736A1, “Therapeutic foam” (priority 2003, published 2006).

Assay: In vitro absorption of foam/gas in fresh human venous blood
Format: in vitro ADME
Settings: 0.5 ml aliquot into 20 ml stirred blood
Experimental: In vitro experiments were conducted to determine the absorption of foam made with different gases in fresh human venous blood.
A 20 ml polypropylene syringe barrel was prepared by puncturing its side wall with a relatively large hypodermic needle to make a hole approximately 1 mm in diameter. This hole was then covered by securing a piece of clear flexible vinyl sheet over it with clear adhesive tape. A small magnetic stirrer element was introduced into the syringe barrel and the plunger then replaced. 20 ml of human venous blood was then with withdrawn in the usual manner from a human subject using the specially prepared syringe fitted with a hypodermic needle.
The hypodermic needle was removed and the syringe then placed on a magnetic stirrer unit so that the magnetic element in the syringe thoroughly agitated the blood. […]
The needle of the 0.5 ml syringe was then introduced through the vinyl sheet on the side wall of the 20 ml syringe. […] It was determined that a distance of 45 intervals on this scale corresponded to an internal volume of in the manometer tubing of approximately 0.5 ml. […]
In this experiment, the air foam test was only observed for a few minutes after tF. However, further experiments have been conducted by the inventors, the results of which are not formally recorded here, involving foam with a percentage of nitrogen. […]

Absorbed volume at tF 0.5(y − z)/(y − x): 0.46 mL
tF (time at which blood column stopped moving): 140 s
Compound: O=O [Oxygen gas, oxygen]
